The record followed here is PubChem BioAssay (NCI).

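Test compounds were applied to cells in 96-well plates for 48 hours at 5 doses. At the TGI there is no net growth.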

Holding throughout (assay): NCI anticancer screen, dose series, 48 h
Assay [1] concerns BT-549 breast.
For assay [2], the system named is DU-145 prostate.
The subject of assay [3] is HT29 colon.
Assay [4] has as its system LOX IMVI melanoma.
The test system of assay [5] is MCF7 breast.
Assay [6] relates to MDA-MB-435.
For assay [7], the system named is MDA-N.
The test system of assay [8] is RPMI-8226 leukemia.
Assay [9] relates to T-47D breast.
In assay [10] the test system is A498 renal.
Assay [11] has as its system HOP-92 NSCLC.
Assay [12] deals with NCI-H226 lung.
The subject of assay [13] is NCI-H522 lung.
The subject of assay [14] is SK-MEL-2 melanoma.
The subject of assay [15] is DMS 114 small cell lung.
The test system of assay [16] is HOP-18 NSCLC.
Assay [17] relates to KM20L2 colon.
Assay [18] relates to SNB-78 CNS.
In assay [19] the test system is DLD-1 colon.
The test system of assay [20] is XF 498 CNS.

As for `Cc1ccc(Nc2nc(NS(=O)(=O)c3cc(C(=O)Nc4ccc(Cl)cc4)c(Cl)cc3S)n[nH]2)cc1`, the TGI in [1], in [2], in assay [3], in [4], in assay [5] and in [6] was above 100 µM each time. Further, the TGI in [7], in assay [8] and in [9] was above 100 µM each time.

Turning to `NC(=S)N/N=C1\c2ccccc2CCC1CCC1(O)CCc2ccccc2C1=O` (stereo not drawn), the TGI in assay [1] was 31.6 µM; in [2] it was above 100 µM; in assay [3], 45.9 µM; in [4], 44.3 µM; in [5], 46.4 µM; in assay [6] it was 46.4 µM. Further, the TGI in assay [7] was determined as 58.4 µM; in assay [8], 70.4 µM; in assay [9], 28.9 µM.

For `COc1ccc(-c2c3c(nc4nc(SC)nc(SC)c24)CCCC3)cc1OC`, the TGI in assay [10], in [1], in assay [2], in assay [11], in assay [3] and in assay [4] was above 100 µM each time. The TGI in assay [5], in assay [6], in assay [7], in assay [12], in assay [13] and in [8] was above 100 µM throughout. For the same molecule, the TGI in assay [14] and in [9] was above 100 µM in each case.

In the case of `CCc1nnc(-c2nsc3ccccc23)s1`, the TGI in assay [15], in assay [16], in assay [11], in [3], in [17] and in [4] was above 100 µM each time. Further, the TGI in assay [8], in assay [14] and in assay [18] was above 100 µM throughout.

Regarding `O=C(NN1C(=O)CSC1c1ccc(C(F)(F)F)cc1)c1ccncc1` (stereo not drawn), the TGI in assay [10] was above 31.6 µM; in assay [19], above 100 µM; in assay [15], above 100 µM; in [16], above 100 µM; in assay [11], above 100 µM; in [3], above 100 µM. For the same molecule, the TGI in [17], in [4], in [5], in assay [12], in assay [13] and in [8] was above 100 µM throughout. Moreover, the TGI in assay [14] was above 100 µM; in assay [18] it was above 31.6 µM; in assay [20], above 100 µM.

In the case of `CC(c1ccccc1)/[N+]([O-])=C/c1ccccc1` (stereo not drawn), the TGI in [10], in assay [19], in assay [15], in assay [16], in assay [11] and in [3] was above 100 µM throughout. For the same molecule, the TGI in assay [17], in [4], in assay [13], in assay [8], in assay [18] and in assay [20] was above 100 µM in each case.

With `CC(CCC(=O)O)C1CCC2C3C(O)CC4CC(O)CCC4(C)C3CC(O)C12C` (stereo not drawn), the TGI in assay [10], in assay [1], in assay [2], in [11], in assay [3] and in assay [4] was above 100 µM in each case. Moreover, the TGI in [5], in assay [6], in [7], in assay [12], in [13] and in assay [8] was above 100 µM throughout. The TGI in assay [14] and in assay [9] was above 100 µM throughout.

For the molecule `CN1CCN(c2cc(-c3cc4ccccc4o3)oc(=O)c2C#N)CC1`, the TGI in [10], in [19], in assay [15], in [3], in assay [17] and in assay [4] was above 100 µM in each case. In addition, the TGI in assay [12] was 60.7 µM; in [8], above 100 µM; in assay [14], above 100 µM; in assay [18], above 100 µM; in [20], above 100 µM.
